Values quoted from earlier work in patent publication US20060078955A1, “Method for retrieving delta9-THC from oral fluid” (Lin-Zhi International, priority 2004, published 2006).

Compound | intrinsic aqueous solubility (hepta-substituted preparation) [% w/v] | aqueous solubility (Jarho et al.) [µg/mL]
sulfobutyl-ether-β-cyclodextrin [Captisol] | > 50 | –
CCCCCc1cc(O)c2c(c1)OC(C)(C)[C@@H]1CCC(C)=C[C@@H]21 [Δ^9-THC, Δ^9-tetrahydrocannabinol] | – | 1 to 2
